Measured values from ChEMBL document CHEMBL3507680, “University of Dundee, Gates Library screen for HepG2 cell viability”.

Experiment: Human HepG2 cell viability assay in 384 well format
Type: toxicity, cell-based
Parameters: dose 125 nL, time 70.5 hour; concentration not given beside the values
Settings: HepG2 cells, read-out: Inhibition

Row | SMILES | cytotoxicity at 70.5 h [%]
1 | O=S(=O)(C1CC1)N1CCn2c(Cn3cncn3)cnc2C1 | 0.357
2 | Cn1nc(CNC(=O)CC#N)c2c1CN(C(N)=O)CC2 | 11.4
3 | Cc1cnc(N2CC(C(=O)N3CCOCC3)C3(CCOCC3)C2)nc1 (stereo unspecified) | -3.59
4 | CC(=O)Nc1ccc2c(c1)C1(CCOCC1)C(=O)N2c1ccsc1 | -9.04
5 | CC(C)Nc1ccc2c(c1)C1(CCOCC1)C(=O)N2c1ccsc1 | -7.35
6 | Cc1cnc(N2CCOC3(CCCN(c4ncccn4)C3)C2)nc1 (stereo unspecified) | -4.18
7 | CCOCC1CN(c2ncc(F)cn2)Cc2cn(CC)nc21 (stereo unspecified) | -11.1
8 | COCCN1C(=O)C2(CCC(C(=O)Nc3cccc(C)c3)CC2)N=C1C (stereo unspecified) | -9.96
9 | CC(C)NC(=O)N1CCOC2(CCCN(c3cccc(C#N)c3)C2)C1 (stereo unspecified) | -10.4
10 | CCn1cc2c(n1)C(COCC1CC1)CN(c1ccc(C)nn1)C2 (stereo unspecified) | -16.7
11 | O=C(C1CN(c2ncc(F)cn2)CC12CCOCC2)N1CCOCC1 (stereo unspecified) | -9.96
12 | COCCN1C(=O)C2(CCC(C(=O)Nc3ccc(F)cc3)CC2)N=C1C (stereo unspecified) | -7.58
13 | Cc1nnn2c1COC(CNCc1ccncc1)C2 (stereo unspecified) | -15.7
14 | O=C(NC1CCCC1)NC1CCc2[nH]c(=O)ccc2C1 (stereo unspecified) | -7.5
15 | O=C(c1nc2c(s1)CCCN2C(=O)C1CC1)N1CCCC1 | -3.91
16 | c1ccc(CNCC2Cn3nncc3CO2)nc1 (stereo unspecified) | -7.76
17 | O=C(NC1CCC1)[C@H]1C[C@@H]2CN(C(=O)Nc3ccc(F)cc3)C[C@H]1O2 | -5.31
18 | Cc1cccc(COC2COC3(CCN(Cc4ccoc4)CC3)C2)n1 (stereo unspecified) | -16.1
19 | CC(C)NC(=O)N1CCN(S(C)(=O)=O)CC2(CNC(=O)C2)C1 (stereo unspecified) | -17.9
20 | O=C(c1cnccn1)N1CCn2cnc(COCC3CC3)c2C1 | 14.8
21 | CS(=O)(=O)NC[C@]12COC[C@H]1CN(C(=O)c1ccncn1)C2 | 15.5
22 | CS(=O)(=O)NC[C@]12COC[C@H]1CN(C(=O)c1cnccn1)C2 | 19.5

Row | SMILES | cytotoxicity at 70.5 h [%]
23 | O=C(NCC1CC1)C1CN(C(=O)c2cnccn2)CC12CCOCC2 (stereo unspecified) | -2.91
24 | COc1ccc(N2CCCC3(C2)CN(c2nncs2)CCO3)cc1 (stereo unspecified) | 1.09
25 | Cc1ccoc1C(=O)N1C[C@@H]2COC[C@]2(CNS(C)(=O)=O)C1 | -3.33
26 | CN(Cc1cn2c(n1)CN(C(=O)c1cccnc1)CC2)Cc1ccco1 | -2.78
27 | Cn1cc(C2CC3(CCN(C(=O)c4cccs4)CC3)NC2=O)cn1 (stereo unspecified) | 1.02
28 | O=C1NC2(CCN(C(=O)Cc3ccsc3)CC2)CC1c1ccccc1 (stereo unspecified) | 0.488
29 | CN(Cc1cn2c(n1)CN(C(=O)c1cccn1C)CC2)Cc1ccco1 | 9.36
30 | Cc1cccc(C(=O)N2CCn3cnc(COCC4CC4)c3C2)c1 | -5.71
31 | CN(Cc1cn2c(n1)CN(C(=O)C1CCCO1)CC2)Cc1ccco1 (stereo unspecified) | -3.64
32 | Cc1ncsc1CN1CC[C@H]2OCC[C@@]2(C(=O)N2CCCC2)C1 | -1.98
33 | Cc1cccc(C(=O)N2CCn3cnc(COCC4CC4)c3C2)n1 | -2.97
34 | CCOCC(=O)N1CCn2cc(CN(C)Cc3ccco3)nc2C1 | -0.359
35 | O=C(NCC1CC1)C1CN(C(=O)c2ccco2)CC12CCOCC2 (stereo unspecified) | -1.19
36 | Cc1occc1C(=O)N1CC(C(=O)N2CCOCC2)C2(CCOCC2)C1 (stereo unspecified) | 6.2
37 | Cc1ccc(CN2CCC3(CC2)CC(NC(=O)c2ccccn2)CO3)o1 (stereo unspecified) | -2.22
38 | Cc1csc([C@H]2C[C@@H]3CCN(C(=O)c4ccnnc4)C[C@H]3O2)n1 | -1.58
39 | O=C(c1ccccc1)N1CC(C(=O)N2CCOCC2)C2(CCOCC2)C1 (stereo unspecified) | 7.01
40 | CN1CC(=O)N(c2cccc(F)c2)CC12CCN(Cc1ccco1)C2 (stereo unspecified) | -5.08
41 | CN1CC(=O)N(c2cccc(F)c2)CC12CCN(Cc1ccccn1)C2 (stereo unspecified) | -1.03
42 | CCC1=N[C@@]2(CC[C@@H]3CN(S(=O)(=O)CC(C)C)C[C@@H]32)C(=O)N1CC1CC1 | 0.026
43 | COCC1CN(C(=O)N2CCCC2)Cc2cnn(CC3CCCC3)c21 (stereo unspecified) | -1.96
44 | Cn1ncc2c1C(COCC1CC1)CN(C(=O)Cc1ccsc1)C2 (stereo unspecified) | -2.83

Row | SMILES | cytotoxicity at 70.5 h [%]
45 | CN(C)CC(=O)N1C[C@@H](Oc2ccccn2)[C@H]2OCCC[C@H]21 | 9.63
46 | O=C(Cc1ccsc1)N1CCn2cc(Cn3cncn3)nc2C1 | 2.98
47 | O=C(Cc1ccsc1)N1C[C@@H]2C[C@@H](c3nnc(C4CC4)o3)O[C@@H]2C1 | 4.61
48 | Cn1nccc1C(=O)N1CCCC2(CCN(c3ccsc3)C2=O)C1 (stereo unspecified) | 10.3
49 | Cc1nccc([C@@H]2C[C@@H]3CCN(Cc4cccs4)C[C@H]3O2)n1 | 4.44
50 | CNc1nnc(CCn2nc(C)c(Br)c2C)s1 | 19.6
51 | O=C(Cn1nc(C(F)(F)F)c(Cl)c1C1CC1)NN1CCOCC1 | 12.9
52 | CN(Cc1cnn(C)c1)C(=O)c1cc(C(F)(F)F)n(C)n1 | -15.3
53 | c1cc(CN2CCO[C@@H]3CNC[C@@H]32)cs1 | -2.99
54 | CC(C)N(C)Cc1cncc2c1CCN(C(=O)c1ccc[nH]1)C2 | -1.2
55 | CC(C)N(C)Cc1cncc2c1CCN(C(=O)c1cccc(C#N)c1)C2 | -4.95
56 | CC(C)N(C)Cc1cncc2c1CCN(C(=O)c1ccccc1F)C2 | -1.95
57 | Cc1ccc(N2CCC3(CCCN3Cc3ccn(C)n3)CC2)nn1 | -2.31
58 | OCCOCc1n[nH]c2c1CN(Cc1ccco1)C2 | 12.9
59 | CC(C)C(=O)N1CCCC2(CCCN2CC2CCCC2)C1 (stereo unspecified) | -2.41
60 | O=C(c1ccc2[nH]ccc2c1)N1Cc2nc(CN3CCCCC3)oc2C1 | -3.84
61 | COCC1CC2(CCN(C(N)=O)CC2)CN1Cc1csc(C)n1 (stereo unspecified) | -3.74
62 | Cc1nc(CN2C[C@@H]3CN(c4ncc(F)cn4)C[C@@H]3C2=O)cs1 | -10.5
63 | O=C(C1CN(c2ncc(F)cn2)CC12CCOCC2)N1CC=CC1 (stereo unspecified) | -5.64
64 | Cc1cccc(N2CC3(CCN(S(=O)(=O)C4CC4)C3)C2)n1 | -6.18
65 | CCN1C[C@H]2C3(CCN(S(=O)(=O)CC)CC3)CC[C@@]2(C(=O)N(C)C)C1 | -4.85
66 | Cc1cnc(N2C[C@H]3CN(Cc4csc(C)n4)C(=O)[C@H]3C2)nc1 | -9.66

Row | SMILES | cytotoxicity at 70.5 h [%]
67 | CC(C)c1cc(C(=O)N2CCOC3(CCNCC3)C2)no1 | -5.65
68 | CCS(=O)(=O)N1CCC2(CC1)CC[C@@]1(C(=O)N(C)C)CN(C)C[C@@H]21 | -15.2
69 | CC(=O)N1CCCC2(C1)CN(c1ncc(C)cn1)CCO2 (stereo unspecified) | -17.1
70 | Cc1cc(CNCC2Cn3nnc(C)c3CO2)oc1C (stereo unspecified) | -7.06
71 | Cc1ccc(CN2C[C@@H]3CN(c4ncccn4)C[C@@H]3C2)cc1 | -4.24
72 | N#Cc1cccc(C(=O)N2CCc3c(COCC4CC4)cncc3C2)c1 | -17.6
73 | Cc1cnc(N2CCC3(CC(=O)N(Cc4csc(C)n4)C3)C2)nc1 (stereo unspecified) | -11.1
74 | Cc1occc1C(=O)N1CCOCC2(CCN(C3CCOCC3)C2)C1 (stereo unspecified) | -19.7
75 | O=C(N1CCOCC1)[C@@]12CCO[C@@H]1CCN(C1CCCCC1)C2 | 47.3
76 | Cc1cccc(CN2CCC3(CCCN(C(=O)N4CCCC4)C3)C2=O)n1 (stereo unspecified) | 40
77 | CC(=O)NCC(=O)N1CCn2cc(CN(C)Cc3ccco3)nc2C1 | 2.22
78 | Cc1nnc(N2C[C@H]3OCC[C@H]3[C@H](C(=O)NCC3CC3)C2)s1 | 1.29
79 | O=C([C@@H]1C[C@@H]2CCN(Cc3ccccn3)C[C@H]2O1)N1CCCO1 | 2.74
80 | Cc1ncsc1CN1CC[C@H]2OCC[C@@]2(C(=O)NC2CC2)C1 | -2.8
81 | O=C(c1ccccc1)N1C[C@H]2CCC[C@@]2(COCc2ccncc2)C1 | 0.753
82 | O=C(c1ccccc1F)N1C[C@H]2CCC[C@@]2(COCc2ccncc2)C1 | -0.88
83 | O=C(C1=CCCC1)N1C[C@H]2CCC[C@@]2(COCc2ccncc2)C1 | 3.16
84 | O=C(NC1COC2(CCN(CC3CCC3)CC2)C1)c1ccccn1 (stereo unspecified) | 1.22
85 | Cn1cnc2c1C(COCC1CC1)CN(C(=O)c1cscn1)C2 (stereo unspecified) | -5.14
86 | Cc1ccc(C(=O)N2C[C@@H]3[C@@H](C2)OCC(=O)N3Cc2cccnc2)o1 | -2.11
87 | O=C(c1ccoc1)N1C[C@@H]2[C@@H](C1)OCC(=O)N2Cc1cccnc1 | -3.91
88 | CS(=O)(=O)N1C[C@@H](Oc2ccccn2)[C@H]2OCCC[C@H]21 | -2.17

Row | SMILES | cytotoxicity at 70.5 h [%]
89 | CCS(=O)(=O)N1C[C@@H](Oc2ccccn2)[C@H]2OCCC[C@H]21 | 25.1
90 | O=C1COC2(CCN(Cc3nccs3)CC2)CN1CC1CC1 | 6.87
91 | Cn1cccc1CN1CCC2(CC1)CCN(C(=O)c1cnccn1)CC2 | 10.8
92 | c1cncc(COCc2n[nH]c3c2CN(Cc2ccco2)C3)c1 | -1.5
93 | COc1ccc(CN2CCc3c(CNC(=O)CC#N)nn(C)c3C2)cc1 | -1.4
94 | CN1CCCn2c(nc(CNC(=O)c3nccn3C)cc2=O)C1 | -1.89
95 | CCN1CCC2(CC1)CC(COC)N(Cc1csc(C)n1)C2 (stereo unspecified) | -5.79
96 | COCC1CC2(CCN(CC3CC3)CC2)CN1Cc1csc(C)n1 (stereo unspecified) | -5.11
97 | COCC1CC2(CCNCC2)CN1Cc1csc(C)n1 (stereo unspecified) | -8.39
98 | Cc1nc(Cn2c3c(ccc2=O)CCN(CC2CC2)CC3)cs1 | -2.72
99 | CN(C)[C@@H]1COC[C@@H]2CN(Cc3ccc4c(c3)OCO4)C[C@@H]21 | -3.34
100 | c1cncc(OCc2noc3c2CN(Cc2cccs2)CC3)c1 | -24.1
101 | CCN(CC)CCN1CC[C@H]2OCC[C@@]2(C(=O)N2CCOCC2)C1 | -14.8
102 | Cc1ccc(CN2CCOC3(COCCN(C(C)C)C3)C2)s1 (stereo unspecified) | 18.3
103 | c1cc(CNCC2OCCc3cn(CC4CC4)nc32)cs1 (stereo unspecified) | -4.34
104 | Cc1ncsc1CN1Cc2cnn(C)c2C(COCC2CC2)C1 (stereo unspecified) | -1.88
105 | CN1CC(=O)N(c2cccc(F)c2)CC12CCN(Cc1ccncc1)C2 (stereo unspecified) | 9.43
106 | Cc1ccc(-c2cnc3n2CCN(C)C32CCN(CC3CC3)CC2)cc1 | -1.92
